Where no end group is shown, it is not given here.
System: Salmonella enterica serotype Enteritidis
Test: Spot-on-lawn antimicrobial activity assay
Format: cell-based
Conditions: spot-on-lawn on M63 soft agar, 37 °C overnight; dried maturation assay in MeOH (41.7 µM if full conversion, 5 µL; Tyr9 derivatives also 69.5 µM, 8 µL); halo diameters
Description: We next evaluated all lasso peptides and their corresponding branched-cyclic peptides for antimicrobial activity in spot-on-lawn assays against Salmonella enterica serotype Enteritidis.[42] […] Moreover, steric constraints in the tight binding pocket are a limiting factor for Tyr-9 substitutions.
4.3 Antimicrobial activity assay against Salmonella strain
The antimicrobial activity assay of MccJ25-derivatives was performed against the indicative strain Salmonella enterica serotype Enteritidis.
4.3.1 Preparation of M63 agar
For M63 agar plates (20 g agar/L): KH2PO4 (3 g/L), K2HPO4 (7 g/L), (NH4)2SO4 (2 g/L), Casamino acids (1 g/L) were dissolved in 900 mL water. Agar (20 g/L) was added, and the suspension was filled up to 1 L and autoclaved (121 °C for 20 min). […]
The indicative strain is freshly streaked on a LB agar plate and incubated at 37 °C overnight. […] The plates were inspected for bacterial growth and possible halos were measured. […]
Fig. S77: Antimicrobial activity test using spot-on-lawn assays with dried m aturation assay dissolved in 30 µL MeOH: (A) Peptides analyzed after maturation assay. (B) Photos of spot -on-lawn assays and measured halo diameters to evaluate trends in activity. The peptide with three D-amino acids was analyzed on a different date, ther efore, diameter of control C (MccJ25) . […]

Substance | antimicrobial activity of enzymatically matured lasso peptides (in words)
9′: His-12 MccJ25 mutant (His-12, Phe-13, Ile-15), L-His (GGAGHVPEYFVHFGIPISFYG; ends and bridges not checked; also: lasso peptide: isopeptide ring closure, ring positions not given here; UniProt Q9X2V7 38-58, looked up, variant G12H I13F T15I) | slightly stronger activity
microcin J25 (GGAGHVPEYFVGIGTPISFYG; lactam (positions not given here); also: lasso peptide: isopeptide ring closure, ring positions not given here; UniProt Q9X2V7 38-58, looked up) [1′, native lasso peptide (21 AA), matured from WT-McjA, reference compound] | activities were only observed

Reference: PMC11212047, “Merging Flow Synthesis and Enzymatic Maturation to Expand the Chemical Space of Lasso Peptides” (Journal of the American Chemical Society, 2024)
